Test [1] relates to Human Platelets aggregation. Briefly: Human platelet aggregation test induced by arachidonic acid or U-46619. The test is classed as cell-based. An excerpt:
The TXA2 antagonist potency of the selected compounds has been evaluated by a platelet aggregation test induced by the U-46619 (stable agonist of the thromboxan A2) or by the arachidonic acid.
Test described according to:
Born G.V.R., Cross M. J.,—The aggregation of blood platelets.—J. Physiol., 1963, 168, 178-195.
Tsuyoshi T., Masayuki Y., Shuichi W., Kazuhiro K., Takashi Y.,—Designe, synthesis, and pharmacology of 3-substituted sodium azulene—1 sulfonates and related compounds: Non-prostaboid thromboxane A2 receptor antagonists.—J. Med. Chem., 1993, 36, 791-800.

The target of test [2] is T1, TPτ thromboxan A2 receptors (Rattus norvegicus, UniProt P34978).
T1 construct: Two tests on smooth musculature have allowed to confirm the antagonist potency on the TPτ thromboxan A2 receptors; from tissue; host or cells: isolated rat aorta; isolated rat stomach fundus
T1 sequence (P34978 1-341): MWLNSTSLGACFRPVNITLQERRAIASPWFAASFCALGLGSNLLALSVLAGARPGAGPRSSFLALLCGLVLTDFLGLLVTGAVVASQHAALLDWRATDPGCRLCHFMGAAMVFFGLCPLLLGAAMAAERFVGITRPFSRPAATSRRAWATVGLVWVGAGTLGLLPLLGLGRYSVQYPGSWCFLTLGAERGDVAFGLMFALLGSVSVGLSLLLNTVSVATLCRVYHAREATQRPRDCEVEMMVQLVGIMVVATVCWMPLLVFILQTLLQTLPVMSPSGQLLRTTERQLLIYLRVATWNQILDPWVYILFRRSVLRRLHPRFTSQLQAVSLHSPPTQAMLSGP
As to the kind of experiment: Test for preventing the rat fundus contraction induced by U-46619. The conditions noted are these: contraction caused by 5 μg of U-46619; read-out: IC 50: concentration reducing of 50% of maximum contraction amplitude of rat fundus. The source says:
(§1) Two tests on smooth musculature have allowed to confirm the antagonist potency on the TPτ thromboxan A2 receptors. Indeed, the capacity of the selected compounds during the binding to prevent the contraction of the rat fundus induced by I′U-46619 and to relax the rat aorta precontracted by this same stable agonist of the TXA2 have been evaluated;
Test description according to:
Harris N., Greenberg R., Phillips M. B., Michel I. M., Goldenberg H. J., Haslanger M. F., Steinbacher T.E.,—Effects of SQ-27,427, a thromboxane A2 receptor antagonist, in the human platelet and isolated smooth muscle.—Eur. J. Pharmacol., 1984, 103, 9-18.

In test [3] the target is T1, TPτ thromboxan A2 receptors. Briefly: Rat aorta contraction test (relaxation of aorta precontracted by U-46619). Conditions: tonus induced by U-46619 (0.03 μM); read-out: IC 50: concentration reducing by 50% the Rat Aorta muscular tonus.
Source text: as §1
Test desribed according to:
de Tullio P., Pirotte B., Lebrun P., Fontaine J., Dupont L., Antoine M. H., Ouedraogo R., Khelili S., Maggetto C., Masereel B., Diouf O., Podona T., Delarge J., 3-and -4-substituted 4H-pyrido[4,3-e]-1,2,4-thiadiazine 1,1-dioxides as potassium channels openers: synthesis pharmacological evaluation, and structure-activity relationships.—J. Med. Chem., 1996, 39, 937-948.

Test [4] has as its target T2, thromboxane A2 receptors (TPα) of human platelets (Homo sapiens, UniProt P21731).
T2 construct: endogenous in cells; host or cells: human platelets
T2 sequence (P21731 1-343): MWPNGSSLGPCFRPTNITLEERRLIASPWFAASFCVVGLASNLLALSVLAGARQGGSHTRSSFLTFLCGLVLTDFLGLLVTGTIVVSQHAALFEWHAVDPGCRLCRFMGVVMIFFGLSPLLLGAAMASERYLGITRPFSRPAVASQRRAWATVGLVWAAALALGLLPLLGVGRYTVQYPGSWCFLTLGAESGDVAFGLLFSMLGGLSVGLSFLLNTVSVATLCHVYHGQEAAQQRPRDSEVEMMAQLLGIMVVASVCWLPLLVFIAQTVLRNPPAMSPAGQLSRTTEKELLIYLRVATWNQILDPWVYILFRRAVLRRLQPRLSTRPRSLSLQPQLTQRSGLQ
Briefly: Binding test: displacement of [3H]SQ-29.548 from human platelet thromboxane A2 receptors. Conditions: for inhibition at 1 µM: read-out: Affinity: percent of [3H]SQ-29.548 specifically substituted by the examined compound, compound 10^-6 M; for inhibition at 0.1 µM: read-out: Affinity: percent of [3H]SQ-29.548 specifically substituted by the examined compound, compound 10^-7 M. An excerpt:
To operate a first selection, the capacity of these compounds to displace in a specific way a tritium ligand, the [^3H]
Cozzi P., Giordani A., Menichincheri M., Pillan A., Pinciroli V., Rossi A., Tonani R., Volpi D., Tamburin M., Ferrario R., Fusar D., Salvati P.,—Agents combining thromboxane receptor antagonism with thromboxane synthase inhibition:[[[2-(1H-imidazol-1-yl)ethylidene]amino]oxy]alkanoic acids.—J. Med. Chem., 1994, 37, 3588-3604.
In general terms: Loss of bound radioactivity is the signal in a displacement assay; it reports binding, not function.

Setting [5] is: Platelet, aggregation induced by 30 nM of U-46619, read-out: IC 50 platelet aggregation, U-46.619.
Where [6] appears, read: Platelet, aggregation induced by arachidonic acid, read-out: IC 50 platelet aggregation, ARACHIDONIC ACID.

Read-outs that look alike come from different tables or passages of the source.

On to `O=C(O)CCC/C=C\CC1C2CCC(O2)C1CNNC(=O)Nc1ccccc1` (stereo not drawn) [SQ-29.548, acid [15-[1-alpha,2-beta (5Z),3-beta, 4-alpha]-7-[3-[[2-(phenylamino)carbonyl]hydrazin]methyl]-7-oxabicyclo[2.2.1]hept-2-yl]-5-heptenoic, reference compound], for which the IC50 in test [1] (aggregation induced by 30 nM of U-46619, read-out: IC 50 platelet aggregation, U-46.619) was 0.034 µM; in test [1] (aggregation induced by arachidonic acid, read-out: IC 50 platelet aggregation, ARACHIDONIC ACID), 0.035 µM; in test [2], 0.18 µM; in test [3], 0.0318 µM. Further, the “Affinity: percent of [3H]SQ-29.548 specifically substituted by the examined compound, 10^-6M” value in test [4] (compound 10^-6 M) turned out to be 100%. Besides, the “Affinity: percent of [3H]SQ-29.548 specifically substituted by the examined compound, 10^-7M” value in test [4] (compound 10^-7 M) stood at 72.0%.

In the case of `O=C(O)COc1ccc(CCNS(=O)(=O)c2ccccc2)cc1` [SULOTROBAN, sulotroban, reference compound], the IC50 in test [1] (setting [5]) was 10.5 µM; in test [1] (setting [6]), 11.7 µM; in test [2], 0.83 µM; in test [3], 1.6 µM. Besides, the inhibition at 1 µM in test [4] turned out to be 55.6%. For the same molecule, the inhibition at 0.1 µM in test [4] turned out to be 16.5%.

With `Cc1cccc(Nc2ccc([N+](=O)[O-])cc2S(=O)(=O)NC(=NC#N)N2CCCCCC2)c1` [Compound 18, N-cyano-N′-[(2-metatoluylamin-5-nitrobenzene)sulfonyl]homopiperidinoamidine], the IC50 amounted to 0.48 µM in test [1] (setting [5]); 0.36 µM in test [1] (setting [6]); 0.07 µM in test [2]; 0.00121 µM in test [3]; 0.0242 µM in test [4]. Besides, the inhibition at 1 µM in test [4] turned out to be 100%. Further, in test [4], the inhibition at 0.1 µM was found to be 88.9%.

Values taken from US6818765B1, “Benzene-sulphonamide derivatives and their uses” (Universite de Liege, priority 1999, dated 2004).
